Measured values as given in patent US8815947B2, “Methods of treating metabolic disorders” (Case Western Reserve University, priority 2007, dated 2014).
Read-outs that look alike come from different tables or passages of the source.

Experiments:
[1] = test system: PPARβ/δ target genes FIAF, ADRP, and PDK-1; assay: Q-PCR of endogenous PPARβ/δ target genes in HaCaT cells; format: cell-based, human; conditions: for expression of mRNA of PPARβ/δ target genes FIAF, ADRP and PDK-1: normalized to 18s mRNA
Protocol: (§1) FIG. 1C illustrates graphs showing the levels of mRNA of the PPARβ/δ target genes FIAF, ADRP, and PDK-1 expressed from HaCaT cells treated with the denoted ligands (0.1 μM, 4 hr). Levels of mRNA of the PPARβ/δ target genes FIAF, ADRP, and PDK-1 were analyzed by Q-PCR and normalized to 18s mRNA. FIG. 1D illustrate a graph showing the level of ADRP mRNA in HaCaT cells that were transfected with control siRNA or PPARβ/δ siRNA (24 hr.), and then treated with the denoted ligands (0.1 μM, 4 hr). ADRP mRNA was analyzed by QPCR and normalized to 18s mRNA. […] FIG. 1F illustrates a graph of the total activation of HaCaT cells transfected with a RARE-driven luciferase reporter. Cells were treated with RA at the denoted concentrations (15 hr), lysed, and luciferase activity measured and corrected for β-galactosidase activity. Data were normalized to the basal activity. […] FIG. 1G illustrates a graph of the level of expression of mRNA of the RAR target gene Cyp26α in cells that were treated with the denoted ligands. Expression of mRNA of the RAR target gene Cyp26α was analyzed by Q-PCR and normalized to 18s mRNA.
Quantitative real-time PCR (Q-PCR). RNA was extracted and cDNA generated using Gene Amp RNA PCR (Applied Biosystems, Foster City, Calif.). Q-PCR analyses for PDK-1 were conducted using TaqMan chemistry and Assays on Demand probes (Applied Biosystems, PDK1-Hs00176884_ml, ADRP-Hs00765634_ml, FIAF-Hs00211522_ml), Cyp26a-Hs01075671_gl, BTG2-Hs00198887_ml, cyclin D1 0 Hs00277039-ml. […] Analyses were carried out using the relative standard curve method (Applied Biosystems Technical Bulletin no. 2).

FABP5 [2] = biological target: T1, FABP5 (Homo sapiens, UniProt Q01469); assay: Fluorescence-based binding assay (ANS titration and competition); set-up: GST; made in house; host or cells: E. coli BL21
Target sequence in this assay (Q01469 whole entry, species assumed): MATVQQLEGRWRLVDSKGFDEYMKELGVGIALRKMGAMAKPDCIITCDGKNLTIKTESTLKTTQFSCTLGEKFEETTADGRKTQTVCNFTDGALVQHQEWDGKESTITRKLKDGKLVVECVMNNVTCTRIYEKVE
Protocol: Binding assays were carried out by fluorescence titrations using a Fluorolog 2 DMIB spectrofluorometer (SPEX Instruments, Edison, N.J.). […] In the first step, Kd for the association of the protein with the fluorescent fatty acid probe ANS was measured. Protein (1 μM) was titrated with ANS from a concentrated solution in ethanol. Ligand binding was monitored by following the increase in the fluorescence of the ligand upon binding to the protein (λex-370 nm; λem-475 nm). Titration curves were analyzed (Norris and Li, 1998) to yield the number of binding sites and Kd. Kds for binding of non-fluorescent ligands were then measured by monitoring their ability to compete with fluorescent probes for binding. […] Kds were extracted from the EC50 of the competition curve and the measured Kd for the probe. Analyses were carried out using Origin 7.5 software (MicroCal Software Inc., Northampton, Mass.).

Akt = assay: Immunoblots of phospho-Akt in HaCaT cells; format: cell-based, human; conditions: ligand 0.1 μM, 12 hr, immunoblot
Protocol: (§2) FIG. 1B illustrates a graph showing the results of the total activation of cells cotransfected with either control siRNA or siRNA for PPARβ/δ, and then treated with RA at the denoted concentrations. FIG. 1C illustrates graphs showing the levels of mRNA of the PPARβ/δ target genes FIAF, ADRP, and PDK-1 expressed from HaCaT cells treated with the denoted ligands (0.1 μM, 4 hr). Levels of mRNA of the PPARβ/δ target genes FIAF, ADRP, and PDK-1 were analyzed by Q-PCR and normalized to 18s mRNA. FIG. 1D illustrate a graph showing the level of ADRP mRNA in HaCaT cells that were transfected with control siRNA or PPARβ/δ siRNA (24 hr.), and then treated with the denoted ligands (0.1 μM, 4 hr). ADRP mRNA was analyzed by QPCR and normalized to 18s mRNA. Data are mean±SEM, n=3. FIG. 1E illustrates immunoblots of […], total Akt, and β-tubulin in cells treated with denoted ligands (0.1 μM, 12 hr). Data from a representative experiment, which was repeated 4 times with similar results are shown. FIG. 1F illustrates a graph of the total activation of HaCaT cells transfected with a RARE-driven luciferase reporter. Cells were treated with RA at the denoted concentrations (15 hr), lysed, and luciferase activity measured and corrected for β-galactosidase activity. […] Expression of mRNA of the RAR target gene Cyp26α was analyzed by Q-PCR and normalized to 18s mRNA. […]

GFP-FABP5 = biological target: T2, GFP-FABP5 (Homo sapiens, UniProt Q01469); assay: Confocal fluorescence microscopy of GFP-FABP5 in live COS-7 cells; format: cell-based; conditions: ligand 1 μM, 30 min
T2 construct: expressed in transfected cells; host or cells: COS-7
T2 sequence (Q01469 whole entry): as the sequence (Q01469 whole entry, species assumed) above
Protocol: Images were acquired from live cells before and after a 30 min. treatment with RA (1 μM). […] Forty cells of each treatment group were analyzed (mean±SEM).
Confocal fluorescence microscopy. COS-7 cells were plated in 35 mm glass bottom microwell dishes (Mattek) in DMEM containing 5% charcoal-treated FBS (75,000 cells per plate), grown for 12 hr. and transfected using Fugene (Roche) with an expression vector harboring GFP-tagged FABP5 (EGFP, 250 ng DNA per plate). Following a 48 hr incubation, medium was replaced with serum-free DMEM, and live cells were imaged using a Leica TCS SP2 confocal microscope equipped with a 40× oil immersion lens. After imaging, cells were treated with ligands (1 μM), incubated at 37° C. for 30 min and imaged again. An average of 40 cells were analyzed using ImageJ (National Institute of Health).

RAR = assay: Transactivation assay, RARE-driven luciferase reporter in HaCaT cells; format: cell-based, human; conditions: RA 15 hr
Protocol: as §1
Transactivation assays. Cells were cultured in 24-well plates and co-transfected with (PPRE)3-luciferase reporter vector (100 ng), a vector harboring the appropriate iLBP (in pCDNA 3.1, 200 ng), and pCH110, a β-galactosidase expression plasmid (50 ng). […]

RAR target gene Cyp26α = assay: Q-PCR of RAR target gene Cyp26α in HaCaT cells; format: cell-based, human; conditions: normalized to 18s mRNA
Protocol: as §2, with “FIG. 1F illustrates a graph of the total activation of HaCaT cells transfected with a RARE-driven luciferase reporter.” left out
Quantitative real-time PCR (Q-PCR). […]

[3] = test system: PPAR β/δ target genes PDK1 and FIAF; assay: Real-time PCR of PDK1 and FIAF in cultured adipocytes; format: cell-based
Text: We then used real-time PCR to examine the effects of these ligands on the expression of PDK1 and another known PPAR β/δ target gene, FIAF.

[4] = test system: obese mice fed a high fat/high sucrose diet; assay: Diet-induced mouse model of obesity, systemic RA treatment; format: in vivo
Protocol: We have now completed a pilot experiment to examine the notion that all-trans-retinoic acid (RA) suppresses obesity and insulin resistance. Experiments were carried out using both cultured adipocytes and a diet-induced mouse model of obesity.
For the in vivo experiments, C57BU6J mice were fed a high fat/high sucrose diet for 16 weeks, when they weighed 1.5 fold more than a cohort fed a standard diet. […] Obese mice were separated into two groups. Both groups were continually maintained on the high fat/high sucrose diet, and one of them was systemically treated with RA.
An important measure of insulin sensitivity is the ability of an animal to clear glucose from plasma. This parameter is assessed by glucose tolerance tests (GTT) in which glucose is administered to the mice and the kinetics of its clearance from blood measured.

PPARβ/δ [5] = biological target: T3, PPARβ/δ (Homo sapiens, UniProt Q03181); assay: Transactivation assay, PPRE-driven luciferase reporter in HaCaT cells; format: cell-based; set-up: endogenous in cells; host or cells: HaCaT
T3 sequence (Q03181 1-441): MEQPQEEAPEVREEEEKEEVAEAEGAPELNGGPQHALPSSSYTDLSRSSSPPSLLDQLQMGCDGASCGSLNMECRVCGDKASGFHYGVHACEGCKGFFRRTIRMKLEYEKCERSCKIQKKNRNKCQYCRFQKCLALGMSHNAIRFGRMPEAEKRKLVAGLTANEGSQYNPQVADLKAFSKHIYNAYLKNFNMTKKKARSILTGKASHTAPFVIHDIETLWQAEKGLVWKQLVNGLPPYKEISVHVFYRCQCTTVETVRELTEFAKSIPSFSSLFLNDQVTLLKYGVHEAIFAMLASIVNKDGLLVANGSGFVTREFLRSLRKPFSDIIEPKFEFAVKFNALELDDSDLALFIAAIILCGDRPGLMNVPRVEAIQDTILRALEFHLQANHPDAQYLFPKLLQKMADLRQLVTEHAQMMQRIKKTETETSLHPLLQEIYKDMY
Protocol: The ability of RA to activate PPARβ/δ in the human keratinocyte cell line HaCaT was examined. Transactivation assays were conducted in HaCaT cells transfected with a PPRE-driven luciferase reporter. Cells were treated with the ligands denoted in FIG. 1 for 15 hours, lysed and luciferase activity was measured and corrected for β-galactosidase activity. Data was normalized to the basal activity. Data are mean±SEM, n=3
(§3) Transactivation assays. Cells were cultured in 24-well plates and co-transfected with (PPRE)3-luciferase reporter vector (100 ng), a vector harboring the appropriate iLBP (in pCDNA 3.1, 200 ng), and pCH110, a β-galactosidase expression plasmid (50 ng). In some experiments, an expression vector encoding RAR or PPARβ/δ (in pSG5, 50 ng) was cotransfected. Transfections were carried out using Fugene (Roche Diagnostics Corporation) according to the protocol of the manufacturer. Twenty-four hours following transfection, medium was replaced by DMEM, and ligands were added (RA—in ethanol, other ligands—in dimethylsulfoxide). Following 24 hr of treatment, cells were lysed and lysates assayed for luciferase activity (Luciferase assay system, Promega) which was corrected for β-galactosidase activity. Experiments were carried out in triplicates.

PPARβ/δ [6] = biological target: T3, PPARβ/δ; assay: Transactivation assay in COS-7 cells, PPRE reporter with PPARβ/δ expression vector; format: cell-based; set-up: expressed in transfected cells; host or cells: COS-7; conditions: COS-7 cells cotransfected with PPARβ/δ expression vector
Protocol: as §3

FABP5 [7] = biological target: T1, FABP5; assay: Subcellular fractionation and immunoblot of endogenous FABP5 in HaCaT cells; format: cell-based; set-up: To monitor the effects of ligands on the localization of endogenous FABP5 in HaCaT cells; endogenous in cells; host or cells: HaCaT; conditions: ligand 1 μM, 30 min, subcellular fractionation
Target sequence in this assay (Q01469 whole entry): as the sequence (Q01469 whole entry, species assumed) above
Protocol: FIG. 2C illustrates an immunoblot of HaCaT cells treated with denoted RA or with stearic acid (1 μM, 30 min.). Nuclei were separated from cytosol by subcellular fractionation (Calbiochem ProtoExtract Subcellular Proteome Extraction kit) and analyzed for the presence of FABP5 by immunoblots.
The subcellular localization of FABP5 was then examined. […] To monitor the effects of ligands on the localization of endogenous FABP5 in HaCaT cells, cells were treated with vehicle, RA, or stearate, subjected to subcellular fractionation, and the presence of FABP5 in cytosol and in nuclei examined by immunoblots (FIG. 2C).

[8] = obese mice on high fat diet, RA treated

Structure (SMILES): CC1=C(/C=C/C(C)=C\C=C\C(C)=C\C(=O)O)C(C)(C)CCC1 [9-cis-RA]
- expression of mRNA of PPARβ/δ target genes FIAF, ADRP and PDK-1 ([1]; ligand 0.1 μM, 4 hr): modest response

Structure (SMILES): O=S(=O)(O)c1cccc2cccc(Nc3ccccc3)c12 [ANS, Anilinonaphtalene-8-sulphonic acid]
- Kd (FABP5 [2]; mean±SD, n=3, protein 1 μM titrated with probe, read-out: Kd for FABP5, direct fluorescence titration): 57 ± 7.3 nM

Structure (SMILES): Cc1cc(SCc2sc(-c3ccc(C(F)(F)F)c(F)c3)nc2C)ccc1OCC(=O)O [GW0742]
- phosphorylation level of Akt (Akt): significantly increased
- subcellular distribution of GFP-FABP5 (nuclear/cytoplasmic) (GFP-FABP5): distinct shift of the protein into the nucleus
- Kd (FABP5 [2]): 42.3 ± 4.5 nM

Structure (SMILES): CC1=C(/C=C/C(C)=C/C=C/C(C)=C/C(=O)O)C(C)(C)CCC1 [RA, all-trans-retinoic acid]
- induction of ADRP mRNA after PPARβ/δ siRNA ([1]; 80% decrease in PPARβ/δ expression, ligand 0.1 μM, 4 hr): significantly hampered
- induction of ADRP mRNA after FABP5 siRNA ([1]; about 80% decrease in FABP5 protein): markedly attenuated
- expression of mRNA of PPARβ/δ target genes FIAF, ADRP and PDK-1 ([1]; ligand 0.1 μM, 4 hr): upregulated the expression of mRNA for all three
- phosphorylation level of Akt (Akt): significantly increased
- expression of RARE-driven luciferase reporter (RAR): upregulated the expression of a reporter gene construct
- expression of mRNA for CYP26α (RAR target gene Cyp26α): efficiently upregulated
- subcellular distribution of GFP-FABP5 (nuclear/cytoplasmic) (GFP-FABP5): distinct shift of the protein into the nucleus
- expression of FIAF and PDK1 mRNA [3]: enhanced the expression of these genes
- hepatic lipid accumulation (steatosis) ([4]; livers of mice fed a high fat diet and treated with RA): all but devoid of lipid stores
- weight of fat tissue (white adipose tissue) [4, 8]: decreased by over two fold
- weights of liver, skeletal muscle or brown adipose tissue (BAT) [4, 8]: without affecting
- food consumption ([4]; obese mice on high fat diet, RA treated vs non-treated cohort): higher than that of the non-treated cohort
- loss of body weight ([4]; obese mice on high fat/high sucrose diet, five week RA treatment, 0.16 mg/day systemic): ~15%
- RA-induced PPRE reporter response after PPARβ/δ siRNA (PPARβ/δ [5]; PPARβ/δ expression decreased by about 80% by siRNA): markedly suppressed
- transcription of the PPRE-driven luciferase reporter (PPARβ/δ [5]; ligand 15 hours, GW0742/TTNPB 1 μM, RA at several concentrations): enhanced the expression of the PPRE-driven reporter and did so in a dose responsive manner
- Kd (FABP5 [2]; mean±SD, n=3, extracted from EC50 of competition curve and Kd of probe, read-out: Kd for FABP5, fluorescence competition titration against ANS): 34.8 ± 6.6 nM
- expression of PPRE-driven reporter (PPARβ/δ [6]): enhanced the expression of the PPRE-driven reporter in a dose-responsive manner
- nuclear localization of endogenous FABP5 (FABP5 [7]): accumulates in the nucleus

Structure (SMILES): C/C(=C\c1ccc(C(=O)O)cc1)c1ccc2c(c1)C(C)(C)CCC2(C)C [TTNPB, 4-[(E)-2-(5,6,7,8-Tetrahydro-5,5,8,8-tetramethyl-2-naphthalenyl)-1-propenyl]benzoic acid]
- expression of mRNA of PPARβ/δ target genes FIAF, ADRP and PDK-1 ([1]; ligand 0.1 μM, 4 hr): little effect
- expression of FIAF and PDK1 mRNA [3]: down-regulation of the two genes

Structure (SMILES): CCCCCCCCCCCCCCCCCC(=O)O [stearic acid]
- subcellular distribution of GFP-FABP5 (nuclear/cytoplasmic) (GFP-FABP5): did not affect the subcellular distribution
